Values quoted from earlier work as cited in patent publication US10227406B2, “Cannabinoid receptor-1 (CB1) monoclonal antibodies” (AMGEN INC., priority 2013, dated 2019).

Tests used:
[1] = cited from earlier work; for food intake, body weight gain and metabolic parameters: mice; for brain penetration: mouse, in vivo
[2] = in vivo; cited from earlier work
[3] = multiple clinical trials; cited from earlier work

Cc1c(C(=O)NN2CCS(=O)(=O)CC2)nn(-c2ccc(Cl)cc2Cl)c1-c1ccc(C#CCCC#N)cc1 [AM6545]
food intake, body weight gain and metabolic parameters [1]: reduce food intake and body weight gain and improve multiple metabolic parameters | brain penetration [1]: poor brain penetration

CC(C)[C@H](N=C(NS(=O)(=O)c1ccc(Cl)cc1)N1C[C@H](c2ccccc2)C(c2ccc(Cl)cc2)=N1)C(N)=O [JD5037]
food intake, body weight gain and metabolic parameters [1]: reduce food intake and body weight gain and improve multiple metabolic parameters | brain penetration [1]: poor brain penetration

Cc1c(C(=O)NN2CCCCC2)nn(-c2ccc(Cl)cc2Cl)c1-c1ccc(Cl)cc1 [rimonabant]
body weight and metabolic parameters [2]: reduce body weight and improve metabolic parameters | adverse CNS effects [3]: increased the incidence of anxiety, depression, and suicidal ideation

C[C@H](NC(=O)C(C)(C)Oc1ccc(C(F)(F)F)cn1)[C@@H](Cc1ccc(Cl)cc1)c1cccc(C#N)c1 [taranabant]
body weight and metabolic parameters [2]: reduce body weight and improve metabolic parameters
